Data taken from BigSolDB 2.1.

O=P(NC1CCCCC1)(Oc1ccccc1)Oc1ccccc1
solubility (mole fraction)
Conditions | in THF | in acetone | in acetonitrile | in benzene | in chloroform | in dichloromethane | in ethanol | in ethyl acetate | in methanol | in toluene
278.15 K | – | – | – | – | – | 0.0884 | – | – | – | –
283.15 K | – | – | – | – | – | 0.102 | – | – | – | –
288.15 K | – | – | – | – | – | 0.129 | – | – | – | –
293.15 K | 0.168 | 0.0439 | 0.0115 | 0.077 | 0.207 | 0.155 | 0.0358 | 0.0305 | 0.0411 | 0.0539
298.15 K | 0.192 | 0.0611 | 0.0171 | 0.0991 | 0.233 | 0.18 | 0.049 | 0.0395 | 0.0533 | 0.0688
303.15 K | 0.229 | 0.0796 | 0.0248 | 0.127 | 0.266 | 0.216 | 0.0638 | 0.0549 | 0.0702 | 0.0911
308.15 K | 0.269 | 0.109 | 0.0371 | 0.159 | 0.313 | 0.26 | 0.0867 | 0.0721 | 0.0955 | –
313.15 K | 0.318 | 0.134 | 0.0521 | 0.195 | 0.352 | – | 0.116 | 0.0946 | 0.121 | 0.154
318.15 K | 0.372 | 0.187 | 0.0759 | 0.25 | 0.4 | – | 0.153 | 0.128 | 0.161 | –
323.15 K | 0.419 | 0.229 | 0.106 | 0.292 | 0.459 | – | 0.196 | 0.166 | 0.212 | 0.259
328.15 K | 0.504 | 0.271 | 0.148 | 0.374 | 0.518 | – | 0.253 | 0.211 | 0.281 | –
333.15 K | 0.567 | – | 0.191 | 0.457 | – | – | 0.317 | 0.264 | 0.356 | 0.409
338.15 K | – | – | 0.263 | 0.55 | – | – | 0.406 | 0.341 | – | –
343.15 K | – | – | 0.358 | 0.636 | – | – | – | 0.426 | – | 0.611
